Molecules are shown by their SMILES.

Data set [1] concerns Human osteosarcoma U2OS cells. As to the kind of experiment: Assay to measure lysosome and autolysosome (acidic vesicle) formation in U2OS cells. It counts as cell-based. As to conditions: Homo sapiens, concentration of 0.8 μM, read-out: Activity (percentage increase in acidic vesicle formation over the DMSO-treated control). The procedure:
Lysosomes play a fundamental role in the autophagic pathway by fusing with autophagosomes and creating ‘autolysosomes’ in order to digest their contents. Stimulation of lysosome and autolysosome formation by a compound is indicative of a stimulation of autophagy. The ability of compounds to stimulate lysosome and autolysosome formation, and thus autophagy, in live cells was assessed via fluorescent microscopy using various fluorescent stains for labelling and tracking acidic organelles (including lysosomes and autolysosomes) such as: LysoView™ 650 (70059 and 70059-T, Biotium), Lyso View™633 (70058 and 70058-T, Biotium) and LysoTracker™ Deep Red (L12492, ThermoFisher Scientific). The cellular phenotype was quantitatively assessed for the induction of acidic vesicle formation and compared to a non-treated control, thus providing a measure of the ability of the compound under investigation to stimulate autophagy.
Representative procedure using LysoView™ 633 dye or LysoTracker™ Deep Red dye: Human osteosarcoma U2OS cells (40,000 cells/well) were seeded in a 24 well glass bottom plate (Sensoplate, Greiner Bio-One) and were incubated overnight in a humidified atmosphere at 37° C. and 5% CO2. Cells were grown in DMEM (Gibco) supplemented with 10% Fetal Bovine Serum (FBS) and 100 units/ml penicillin and 100 μg/ml streptomycin (Invitrogen). After the attachment period, cells were treated with different compounds of interest (at various concentrations in DMSO) or DMSO (non-treated control) in cell culture medium and were incubated for 24 hours. Compound-containing medium was removed and cells were incubated with pre-warmed cell culture medium containing 1× Lyso View™ 633 (70058 and 70058-T, Biotium) or 50 nM LysoTracker™ Deep Red (L12492, ThermoFisher Scientific) for 45 minutes at 37° C. Finally, cell nuclei were stained for 10 minutes using Hoechst 33342 (1 μg/mL) and then the medium was replaced with fresh medium. The 24 well plate was then fitted into a heated stage on the microscope and cells maintained at 37° C. Images were captured using appropriate filter set for Cy5 and DAPI detection with the EVOS M7000 Microscope (ThermoFisher Scientific). The cellular phenotype was visually assessed for the induction of acidic vesicle formation relative to the non-treated control; multiple images were acquired and analysed using ImageJ or Cell Profiler.

For data set [2], the system named is C57BL/6JRj mice injured by intra-nigral injections of α-syn combined with conduritol B epoxide. As to the kind of experiment: Mouse model of Parkinson's disease (intra-nigral α-syn plus CBE). It counts as in vivo. As to conditions: 30 mg/kg per os twice a day. An excerpt: This model (run by Neuro-Sys SAS, France) uses C57BL/6JRj mice injured by intra-nigral injections of a solution containing protofibrils of alpha-synuclein (α-syn, precisely quantified by automatic Western Blot) and combined with pharmacological inhibition of GBA by conduritol B epoxide, in aged mice. The model reproduces essential neuropathological features of PD (e.g. loss of dopaminergic neurons, α-syn aggregation, endoplasmic reticulum [ER] stress) and the neuroinflammatory response (microglia activation and release of proinflammatory cytokines) in the nigra striata area.
Animal characteristics: • Type of animal: C57BL/6JRj (Male) • Age: 18 months old • Supplier: Janvier Labs • Animal number: 7 mice per group • Acclimation and clinical signs: Animals arrived on site 7 days (one week) before the experiment to allow optimal acclimation.
• Test compound dose and administration: 30 mg/kg, per os (gavage or drinking water), twice a day • Test compound treatment: The test compound was solubilized (vehicle=water), aliquoted and stored at −20° C. Aliquots were thawed overnight at 4° C. and given twice a day (morning and afternoon). Treatment started on the day of the stereotaxic injections of α-syn preparation (Day 0). Treatment was administrated until the last day of the experiment (Day 28; =day of dissection). • CBE dose and administration: 50 mg/kg, Intraperitoneal (i.p.), twice a day. • CBE treatment: Administration of CBE (vehicle=saline [NaCl 0.9%] started on the day of the stereotaxic injections of α-syn preparation (Day 0). Treatment was administrated until the last day of the experiment (Day 28; =day of dissection), • Untreated control: vehicle (saline; i.p.) administered twice a day, […]
For overall evaluation and body mass, mice were observed daily, and body mass was monitored prior the morning drug administration. […]

Setting [3] is: day 28, compared to the α-syn/CBE injured group.

`CCN1CCC(N(C)C(=O)c2csc(-c3cnn(-c4ccccc4)c3)n2)CC1` [Compound 196, N-(1-ethylpiperidin-4-yl)-N-methyl-2-(1-phenyl-1H-pyrazol-4-yl)-1,3-thiazole-4-carboxamide]: the activation at 0.8 µM in data set [1] was in the range of 30 to 50%. Also, the “body mass of the animals” value in data set [2] (after 4 weeks of treatment) was “did not significantly modify”. Moreover, in data set [2] (setting [3]), the “decrease in the number of Iba1-positive microglial cells in the SNpc” value was over 15% and the “increase in the number of dopaminergic TH positive neurons in the SNpc” value was over 60%.

The values above are taken from patent US20250034127A1, “AUTOPHAGY INDUCING COMPOUNDS AND USES THEREOF, IN PARTICULAR FOR DISEASES OF THE CNS” (Samsara Therapeutics Inc., priority 2021, published 2025).
